Source: publication PMC3587609, “A Novel Cell-Penetrating Peptide Derived from Human Eosinophil Cationic Protein” (PLoS ONE, 2013)

Key:
Beas-2B cells [1] = assay: Flow cytometry: internalization of FITC-peptides into Beas-2B cells; type: cell-based; conditions: 5 µM FITC-peptides, 37°C, 1 h, washed, trypsinized 37°C 15 min, cells treated with ECP32–41 set as 100%, mean ± S.D., n = 4
Method: Internalization of FITC-ECP^32–41 and FITC-EDN^32–41 was measured as the median ﬂuorescence intensity (MFI) of 6.0×10^5 Beas-2B cells that had been treated with one of the FITC-labelled peptides (1 to 20 µM) at 37°C for 1 h, and then treated with trypsin to remove surface-bound peptides. […] When Beas-2B cells were treated with 5 µM of a FITC-peptide at 37°C, the fluorescent signal for FITC-ECP^32–41 increased within 5 min, and reached plateau at 30 min (Figure 1B).
(§1) Figure 1 Internalization of ECP^32–41 and EDN^32–41. (A) Beas-2B cells were incubated with 1, 5, 10, or 20 µM FITC-ECP^32–41, FITC-EDN^32–41, or FITC at 37°C for 1 h. […] (B) Beas-2B cells were incubated with 5 µM FITC-ECP^32–41, FITC-EDN^32–41, or FITC at 37°C for 5, 10, 30, or 60 min. The cells were then treated as described in (A) and subjected to flow cytometry. The results in (A) and (B) are expressed as the mean ± standard deviation (S.D.), n = 3. (C) Beas-2B cells were incubated with 5 µM FITC-ECP^32–41, FITC-EDN^32–41, or FITC at 37°C for 5 or 60 min before CLSM. Nuclei were stained with Hoechst 34850. Scale bar: 20 µm.
Cells (3.0×10^5/well) were added into six-well plates and cultured in the indicated medium. […] The fluorescent intensities of the cell samples were measured using a FACSCalibur flow cytometer (BD Biosciences, Franklin Lakes, NJ) and excitation and emission wavelengths of 488 nm and 515–545 nm respectively. […]

Beas-2B cells [2] = assay: Confocal laser-scanning microscopy (CLSM) of FITC-peptide internalization; type: cell-based; conditions: 5 µM peptide, 37°C, 5 and 60 min
Method: as §1
Cells were cultured on coverslips (1.0×10^4/coverslip) in indicated medium. After 24 h, cell samples were each incubated at 37°C for 1 h with an FITC-peptide. The cells were then washed twice with PBS, fixed with 2% (w/v) paraformaldehyde and incubated, first in PBS for 15 min, then with 50 mM NH4Cl in PBS for 10 min, and finally permeabilised with 0.5% (v/v) Triton-X-100 at 25°C for 5 min. Nuclei were stained with Hoechst 33342 Fluorescent Stain, (Sigma-Aldrich) during the final 5 min of incubation. Cells were then washed twice with 0.05% Triton-X-100, once with PBS, and the coverslips were mounted in a Vectashield anti-fade mounting medium (Vector Labs). […]

CHO-pgsA745 cells = assay: Cell-based ELISA: binding to GAG-deficient CHO cells; design: species or system Chinese hamster; conditions: CHO-pgsA745 cells (no GAG), 5 µM FITC-ECP32–41, 4°C, 1 h, CHO-K1 normalized to 100%, n = 3
Method: Cell-membrane GAGs including HS, CS/DS, and HA are necessary for CPP internalization, [6]. To assess the effect of GAGs on ECP^32–41 cellular binding ability, soluble GAGs including LMWH, CSC, and HA were used as competitors to inhibit the attachment of ECP^32–41 to Beas-2B cells. […] To clarify the roles of cell-surface HS and CS, the binding of ECP^32–41 to wild-type and two mutant strains of Chinese hamster ovary (CHO) cells was assessed by ELISA. […] CHO-pgsA745 cells are deficient in xylosyltransferase so that no GAG was present on the surface. […] GAGs, and especially HSPGs, are therefore crucial for the initial interaction of ECP^32–41 with cell surfaces.
Figure 2 Cell-surface GAG-dependent binding of ECP^32–41. […] After washed twice with PBS, cells were subjected to ELISA. […] (B) CHO cells were incubated with 5 µM FITC-ECP^32–41 at 4°C for 1 h, washed twice with PBS, and subjected to ELISA. The amount of FITC-ECP^32–41 bound to CHO-K1 cells was normalized to 100%.
Cells (2×10^4/well) were seeded into 96-well black plate and incubated under a 5% CO2 atmosphere at 37°C for 24 h. Each well was then washed with 150 µl ice-cold PBS. […] Each well was then washed with 100 µl PBS and the FITC fluorescent intensity for each sample was measured using a fluorescence spectrophotometer (Wallac Victor II, Perkin Elmer, USA) and excitation and emission wavelengths of 485 nm and 521 nm respectively.

CHO-K1 cells = assay: Internalization into wild-type CHO cells (flow cytometry and CLSM); type: cell-based, Chinese hamster; conditions: 5 µM FITC-ECP32–41, 37°C, 1 h
Method: (§2) Figure 3 HS-dependent ECP^32–-41 internalization. […] (B) Samples of wild-type and mutant CHO cells were each incubated with 5 µM FITC-ECP^32–41 at 37°C for 1 h and then subjected to flow cytometry. (C) Samples of wild-type and mutant CHO cells were incubated with 5 µM FITC-ECP^32–41 at 37°C for 1 h., then washed twice with 1 ml PBS, and fixed for CLSM. Nuclei were stained with Hoechst 34850. Scale bar: 20 µm. (D) Beas-2B cells were treated with heparinase I, heparinase III, or chondroitinase ABC for 2 h prior to incubation with 5 µM FITC-ECP^32–41 at 37°C for 1 h. […] Untreated cells served as the controls. The fluorescence of cells treated with FITC-ECP^32–41 was set to 100%. […] (E) Beas-2B cells were treated with heparinase I, heparinase III, or chondroitinase ABC for 2 h. […] Untreated cells served as the control. The fluorescence of the untreated cells was set to 100%.
(§3) Cells (3.0×10^5/well) were added into six-well plates and cultured in the indicated medium. After 24 h, each FITC-peptide, dissolved in medium, was added into a well and the samples incubated for 1 h. Cells were then harvested, washed, and suspended in PBS. The fluorescent intensities of the cell samples were measured using a FACSCalibur flow cytometer (BD Biosciences, Franklin Lakes, NJ) and excitation and emission wavelengths of 488 nm and 515–545 nm respectively. […]

CHO pgsD-677 cells = assay: Internalization into HS-deficient CHO cells (flow cytometry and CLSM); type: cell-based, Chinese hamster; conditions: CHO pgsD677 cells, 5 µM FITC-ECP32–41, 37°C, 1 h
Method: as §2, §3

CHO pgsA-745 cells = assay: Internalization into GAG-deficient CHO cells (flow cytometry and CLSM); type: cell-based, Chinese hamster; conditions: CHO pgsA745 cells, 5 µM FITC-ECP32–41, 37°C, 1 h
Method: as §2, §3

[3] = Circular dichroism spectroscopy; type: physicochemical; conditions: data not shown

In the case of NYRWRCKNQN [ECP^32–41], the “Penetrating (%)” value (Beas-2B cells [1]) is reported as 100%, the “intracellular fluorescence by CLSM” value (Beas-2B cells [2]) is reported as “clearly detected” and the “reduction of binding versus CHO-K1 cells” value (CHO-pgsA745 cells) is reported as 52%. The “internalization monitored by CLSM” value (CHO-K1 cells) was “clearly observed for CHO-K1 cells”, the “internalization monitored by CLSM” value (CHO pgsD-677 cells) was “but not for CHO pgsD677 or pgsA745 cells” and the “internalization monitored by CLSM” value (CHO pgsA-745 cells) was “but not for CHO pgsD677 or pgsA745 cells”. For the same sequence, the “secondary structure by circular dichroism spectroscopy” value [3] was “random coil”.
